According to patent US20210346459A1, “Application of Dalargin for the prevention of VRIs and prevention of the development of complications during VRIs” (priority 2020, published 2021):
Like-named read-outs stand apart in the source and are kept apart here. Marks after values point to notes of the source that are not given here. Square brackets hold non-standard residues; d marks the D form. Peptide text beside a SMILES is read from it.

Assays:
[1] = test system: influenza virus A/California/04/2009; format: in vivo, mice
[2] = in vitro; details: dog
[3] = administered by injection or infusion; cited from earlier work
[4] = in vitro; details: African green monkey
[5] = test system: human adenovirus 5; details: for Virus titer Ad5 (adenovirus): virus control 4.5
[6] = test system: influenza; format: in vivo, human; details: Example 9, 4 relatives; 0.02% solution inhaled once a day, 1 mg/day; 7 days
[7] = test system: influenza virus A/Puerto Rico/8/34 (H1N1); details: for Virus titer PR8 (influenza virus): virus control 5.5
[8] = application to skin or mucosae at any concentration; cited from earlier work
[9] = test system: influenza virus A; format: in vivo, human
[10] = Effect of low pH acetate buffer on antiviral and immunotropic activity; details: low pH acetate-based buffer solution; nose, nasopharynx, oropharynx, oral cavity or sublingual
From the text: The preferred type of buffer salts is acetate buffer, which contains sodium acetate and acetic acid, with a preferred pH value of 4.0-5.5. Citrate buffer can also be used. […] Additionally, a physiologically active buffer on the basis of sodium hydrogen phosphate dihydrate and sodium dihydrogen phosphate dihydrate can be used; however, this buffer is not sufficiently efficient in the pH range from 4.0 to 5.5 in terms of its buffer capacity.

[11] = Clinical testing of inhalation: cough and shortness of breath; format: in vivo, human
From the text: Mu and delta receptors are found in the cough centre of the medulla, and systemic application of […] of these receptors inhibits the cough reflex. This usually also affects other organs and zones of the brain that contain opioid receptors. Additionally, since receptors of this group are found in peripheral neural pathways, Dalargin can also affect the conduction of signals along these neural pathways. Dalargin inhalation mostly produces local effects of short-lived metabolites of the peptide on peripheral opioid receptors, which manifests itself in reduced response of receptor cells to stimulation and reduced intensity of the signal transmitted to the cough centre. […] A certain local analgesic effect also improves the overall condition of the patient. […] This, in turn, alleviates the irritation of the respiratory tract, reduces the loss of the inhaled product due to coughing and improves the patients' quality of life.
Shortness of breath is one of the most common symptoms of VRIs. The patient is often unable to perform the most basic actions without experiencing shortness of breath, panting, and a sensation of lacking air. Descriptions of various methods of the treatment of shortness of breath report positive effects of systemic administration of certain opioid receptor agonists. […] Systemically administered opioids are also recommended for treating shortness of breath in such patients, but side effects may limit their use. Despite the positive effect, uses of such therapies are severely limited due to typical side effects and restrictions on the sales of opioid drugs. Inhalation of Dalargin is additionally associated with improved quality of respiration. […] Unlike classical opioids, these metabolites are short-lived and only act locally, in the zone where the inhaled aerosol is deposited in the lungs, predominantly in the larynx, bronchi and trachea.

[12] = Group 4: nasally once a day 0.2 mg/kg, concentration 0.08%
[13] = Group 4: nasally once a day 0.2 mg/kg, concentration 0.08%, 30 animals
[14] = Group 5: nasally and posterior pharyngeal wall (PS) once daily 0.5 mg/kg, concentration 0.1%
[15] = Group 5: nasally and posterior pharyngeal wall (PS) once daily 0.5 mg/kg, concentration 0.1%, 30 animals
[16] = Group 6: inhalation of 1% solution 40 min once a day, 0.5 mg/kg
[17] = Group 6: inhalation of 1% solution 40 min once a day, 0.5 mg/kg, 30 animals
[18] = Group 7: inhalation of 3% solution 45 min once a day, 1.74 mg/kg
[19] = Group 7: inhalation of 3% solution 45 min once a day, 1.74 mg/kg, 30 animals
[20] = Group 9: inhalation of 3% solution 45 min twice a day, prophylactic only
[21] = Group 9: inhalation of 3% solution 45 min twice a day, prophylactic only, 30 animals
[22] = Group 10: nasally + pharyngeal spray (PS) 0.5 mg/kg once a day, prophylactic only
[23] = Group 10: nasally + pharyngeal spray (PS) 0.5 mg/kg once a day, prophylactic only, 30 animals
[24] = Example 10, patient V, A/California/07/2009 (H1N1), 0.1% solution inhaled twice a day, 4 mg/day, with Oseltamivir

In the case of `CC(C)C[C@H](NC(=O)[C@H](Cc1ccccc1)NC(=O)CNC(=O)[C@@H](C)NC(=O)[C@@H](N)Cc1ccc(O)cc1)C(=O)N[C@@H](CCCNC(=N)N)C(=O)O` [Dalargin, tyrosyl-D-alanyl-glycyl-phenylalanyl-leucyl-arginine diacetate] (H-Y[dA]GFLR-OH), the “Mortality, %” value [1, 12] is reported as 56.67%, the “Protective index, %” value [1, 12] is reported as 41.38% and the “Mortality by day 5” value [1, 13] is reported as 2. The “Mortality by day 6” value [1, 13] was 4, the “Mortality by day 7” value [1, 13] was 9 and the “Mortality by day 9” value [1, 13] was 1. For the same compound, the “Mortality by day 11” value [1, 13] was 1, the Residue [1, 13] was 13 and the “Mortality, %” value [1, 14] was 40.00%. For the same compound, the “Protective index, %” value [1, 14] was 58.62%, the “Mortality by day 6” value [1, 15] was 1 and the “Mortality by day 7” value [1, 15] was 2. The “Mortality by day 8” value [1, 15] was 3, the “Mortality by day 9” value [1, 15] was 5 and the “Mortality by day 10” value [1, 15] was 1. For the same compound, the Residue [1, 15] was 18, the “Mortality, %” value [1, 16] was 6.67%** and the “Protective index, %” value [1, 16] was 93.10%. The “Mortality by day 7” value [1, 17] was 1, the “Mortality by day 8” value [1, 17] was 1 and the Residue [1, 17] was 28. For the same compound, the “Mortality, %” value [1, 18] was 10.00%**, the “Protective index, %” value [1, 18] was 89.66% and the “Mortality by day 7” value [1, 19] was 1. The “Mortality by day 8” value [1, 19] was 1, the “Mortality by day 9” value [1, 19] was 1 and the Residue [1, 19] was 27. For the same compound, the “Mortality, %” value [1, 20] was 30.00%, the “Protective index, %” value [1, 20] was 68.97% and the “Mortality by day 6” value [1, 21] was 2. The “Mortality by day 7” value [1, 21] was 3, the “Mortality by day 8” value [1, 21] was 2 and the “Mortality by day 9” value [1, 21] was 2. For the same compound, the Residue [1, 21] was 21, the “Mortality, %” value [1, 22] was 46.67% and the “Protective index, %” value [1, 22] was 51.72%. The “Mortality by day 5” value [1, 23] was 2, the “Mortality by day 6” value [1, 23] was 4 and the “Mortality by day 7” value [1, 23] was 2. The “Mortality by day 8” value [1, 23] was 3, the “Mortality by day 9” value [1, 23] was 2 and the “Mortality by day 10” value [1, 23] was 1. The Residue [1, 23] was 16, the “Efficacy compared with other antiviral drugs (Ingavirin, Arbidol)” value ([1]; administered by inhalation, prevention of influenza pneumonia) was “superior to other antiviral drugs” and the “Protective effect against infection, share of animals” value ([1]; preventive administration, depending on the route of administration) was 50-70%. The CC50 [2] was no less than 30 µg/mL, the Mean elimination half-life [3] was 12 min and the CC50 [4] was no less than 30 µg/mL. For the same compound, the IC50 [5] was 2.5 µg/mL, the “Virus titer Ad5 (adenovirus)” value ([5]; 0.4 μg/mL) was 4.5 lg TCID50/0.1 mL and the “Virus titer Ad5 (adenovirus)” value ([5]; 1.1 μg/mL) was 4.5 lg TCID50/0.1 mL. For the same compound, the “Virus titer Ad5 (adenovirus)” value ([5]; 3.3 μg/mL) was 4.0 lg TCID50/0.1 mL, the “Virus titer Ad5 (adenovirus)” value ([5]; 10 μg/mL) was 4.0 lg TCID50/0.1 mL and the “Virus titer Ad5 (adenovirus)” value ([5]; 30 μg/mL) was 3.5 lg TCID50/0.1 mL. For the same compound, the SI ([5]; CC50/IC50, Ad5 (adenovirus)) was 12, the “Antiviral properties (in words)” value ([5]; adenovirus, Vero) was “dose-dependent reduction of the infectious activity” and the “Signs or symptoms of influenza in household contacts” value [6] was “None of the relatives of patient V who were in contact with them exhibited catarrhal signs, hyperthermia or other signs or symptoms of influenza”. For the same compound, the “Virus titer PR8 (influenza virus)” value ([7]; 0.4 μg/mL) was 5.5 lg TCID50/0.1 mL, the “Virus titer PR8 (influenza virus)” value ([7]; 1.1 μg/mL) was 5.0 lg TCID50/0.1 mL and the “Virus titer PR8 (influenza virus)” value ([7]; 3.3 μg/mL) was 5.0 lg TCID50/0.1 mL. The “Virus titer PR8 (influenza virus)” value ([7]; 10 μg/mL) was 4.5 lg TCID50/0.1 mL, the “Virus titer PR8 (influenza virus)” value ([7]; 30 μg/mL) was 4.0 lg TCID50/0.1 mL and the SI ([7]; CC50/IC50, PR8 (influenza virus)) was greater than 37.5. For the same compound, the IC50 ([7]; PR8 (influenza virus), MDCK) was 0.8 µg/mL, the “Antiviral properties (in words)” value ([7]; influenza virus, MDCK) was “dose-dependent reduction of the infectious activity” and the Local irritation [8] was “does not produce local irritation”. The “Complete resolution of symptoms, day after start of therapy” value ([9]; Example 8, patient K, influenza pneumonia A/Aichi/2/68 (H3N2), 0.02% solution inhaled twice a day, 1 mg/day, with Oseltamivir 75 mg twice a day) was 7 days, the Duration of fever [9, 24] was 3 days and the “Duration of intoxication symptoms” value [9, 24] was 2 days. The “Duration of the disease as a whole (complete resolution of symptoms)” value [9, 24] was 5 days, the “Fold higher specific antiviral and immunotropic activity” value [10] was 2-4 times and the “Duration of reduced coughing severity” value [11] was 2 to 4 h. The “Cough reported by patients” value ([11]; clinical testing) was “alleviation or elimination of cough” and the Shortness of breath ([11]; investigational clinical use) was “significantly reduced shortness of breath”.
